Results published in article PMC10997755, “Discovery of a small-molecule inhibitor that traps Polθ on DNA and synergizes with PARP inhibitors” (Nature Communications, 2024).
Several values for one entry are separate records, joined by “and”; a condition that tells them apart may be missing. Identical values can stand only once.

How the values were obtained:
[1] = target: T1, Polγ (Homo sapiens, UniProt P54098); test: Primer extension by recombinant Pols (selectivity); format: biochemical
T1 construct: gift: Dr. Copeland (NIEHS)
T1 sequence (P54098 1-1239): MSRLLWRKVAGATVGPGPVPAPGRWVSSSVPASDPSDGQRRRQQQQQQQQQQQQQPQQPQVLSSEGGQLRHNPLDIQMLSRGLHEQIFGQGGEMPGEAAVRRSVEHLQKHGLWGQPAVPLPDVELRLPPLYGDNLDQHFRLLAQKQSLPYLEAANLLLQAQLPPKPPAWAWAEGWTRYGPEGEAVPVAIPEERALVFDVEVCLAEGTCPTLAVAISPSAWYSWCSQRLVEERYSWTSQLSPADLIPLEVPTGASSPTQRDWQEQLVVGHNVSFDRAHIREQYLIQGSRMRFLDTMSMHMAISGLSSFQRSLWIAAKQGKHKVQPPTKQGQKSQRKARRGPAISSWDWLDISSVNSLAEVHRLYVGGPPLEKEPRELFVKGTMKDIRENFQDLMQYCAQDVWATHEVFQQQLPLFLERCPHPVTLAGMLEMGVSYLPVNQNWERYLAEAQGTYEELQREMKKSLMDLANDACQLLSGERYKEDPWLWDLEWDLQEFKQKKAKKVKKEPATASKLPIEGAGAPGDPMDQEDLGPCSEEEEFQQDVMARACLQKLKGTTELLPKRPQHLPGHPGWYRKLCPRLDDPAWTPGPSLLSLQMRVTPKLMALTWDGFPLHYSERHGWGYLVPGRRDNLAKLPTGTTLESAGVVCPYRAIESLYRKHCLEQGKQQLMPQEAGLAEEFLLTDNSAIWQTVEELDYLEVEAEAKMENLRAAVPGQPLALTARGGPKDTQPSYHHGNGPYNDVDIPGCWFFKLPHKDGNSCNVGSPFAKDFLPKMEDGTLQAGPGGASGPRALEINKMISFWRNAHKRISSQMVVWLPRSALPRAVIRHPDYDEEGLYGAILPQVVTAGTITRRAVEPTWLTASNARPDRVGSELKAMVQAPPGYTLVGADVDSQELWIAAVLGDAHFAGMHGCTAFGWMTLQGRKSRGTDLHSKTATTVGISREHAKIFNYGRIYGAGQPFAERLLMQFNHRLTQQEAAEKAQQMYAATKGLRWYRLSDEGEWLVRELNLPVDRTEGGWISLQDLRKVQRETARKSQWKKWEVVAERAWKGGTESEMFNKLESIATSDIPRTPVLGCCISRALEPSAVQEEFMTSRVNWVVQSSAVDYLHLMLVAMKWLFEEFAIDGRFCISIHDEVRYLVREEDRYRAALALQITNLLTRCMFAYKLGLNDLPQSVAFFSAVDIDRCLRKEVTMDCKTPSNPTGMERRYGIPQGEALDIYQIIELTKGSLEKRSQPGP

[2] = target: T2, Polθ-pol (Homo sapiens, UniProt O75417); test: Primer extension by recombinant Pols (selectivity); format: biochemical
T2 construct: purified recombinant human Polθ-pol (comprising amino acid residues 1792–2590); made in house
T2 sequence (O75417 1792-2590): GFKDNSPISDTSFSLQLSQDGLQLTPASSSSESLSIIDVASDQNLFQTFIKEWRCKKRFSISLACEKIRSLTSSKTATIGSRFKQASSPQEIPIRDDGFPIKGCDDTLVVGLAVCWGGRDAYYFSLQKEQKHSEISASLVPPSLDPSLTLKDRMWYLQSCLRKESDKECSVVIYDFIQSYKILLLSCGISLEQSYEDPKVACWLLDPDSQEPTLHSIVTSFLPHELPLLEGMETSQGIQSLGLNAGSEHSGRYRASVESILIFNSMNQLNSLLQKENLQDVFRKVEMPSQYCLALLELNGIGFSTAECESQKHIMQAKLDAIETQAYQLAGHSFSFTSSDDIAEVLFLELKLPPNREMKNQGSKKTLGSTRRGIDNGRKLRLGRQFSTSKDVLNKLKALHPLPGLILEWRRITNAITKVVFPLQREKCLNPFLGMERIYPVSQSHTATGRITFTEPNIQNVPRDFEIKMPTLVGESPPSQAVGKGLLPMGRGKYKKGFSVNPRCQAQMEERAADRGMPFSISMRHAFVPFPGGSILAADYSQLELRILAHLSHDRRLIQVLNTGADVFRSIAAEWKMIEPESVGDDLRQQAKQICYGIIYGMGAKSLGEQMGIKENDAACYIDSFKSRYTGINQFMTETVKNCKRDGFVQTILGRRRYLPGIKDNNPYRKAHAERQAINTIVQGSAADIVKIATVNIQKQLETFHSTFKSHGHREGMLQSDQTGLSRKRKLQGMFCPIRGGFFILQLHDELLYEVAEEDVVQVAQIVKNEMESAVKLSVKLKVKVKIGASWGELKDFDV

[3] = test system: DLD1 BRCA2 -/- cells; test: γ-H2AX immunofluorescence; format: cell-based
Method: (§1) Cells were plated on six well plates with glass-coverslips and treated with RTX-161 day after plating. Four days after treatment, cells were fixed with 4% (v/v) paraformaldehyde for 20 min at 4 °C, washed with PBS, permeabilized with 0.5% (v/v) Triton X for 10 min and blocked with PBS containing 3% BSA. Cells were incubated with primary antibody overnight at 4 °C followed by 3x washes with PBS and then 1 h incubation with secondary antibody. The incubations were performed in the dark in a humidified chamber. After 3x washing in PBS for 3 min, slides were mounted in 20 ul Prolong antifade with DAPI (LifeTechnologies) to counterstain the nuclei. Cells were visualized and imaged using Nikon A1R Confocal microscope at a 63X objective magnification, and images were analyzed using ImageJ software. For quantification, >50 cells were counted for all conditions from three independent experiments. The primary antibody used for IF was rabbit anti-gamma H2AX [p Ser139] antibody (Bethyl Lab #A700-053) 1:500 dilution in 1% BSA in PBS. The secondary antibody was Goat anti-Rabbit IgG (H + L) Secondary Antibody, DyLight 488 (Thermo #35552) 1:2000 dilution in 1% BSA in PBS.

[4] = test system: DLD1 Parental cells; test: γ-H2AX immunofluorescence; format: cell-based; conditions: DLD1-BRCA2-WT, 5 microM
Method: as §1

## CN(C(=O)Oc1c(N2CCN(CCO)C2=O)cc(C(F)(F)F)cc1C(F)(F)F)c1ccc(F)cc1 [RTx-161]
[1]; Pol Gamma
  % Full Extension: 81.33%
  % Inhibition Compared to Control: 1.34%
  % Relative Maximum Extension: 98.66%
[1]; selectivity panel
  inhibition of primer extension: no inhibition
[2]; Pol Theta
  % Full Extension: 14.28%
  % Inhibition Compared to Control: 85.17%
  % Relative Maximum Extension: 14.83%
[2]; selectivity panel
  inhibition of primer extension: selective inhibition
[3]; DLD1- BRCA2-null, 5 microM, Average of Expt 1-3 (DMSO 14.884)
  Percent of positive nuclei, Average: 48.7855%
[3]; DLD1- BRCA2-null, 5 microM, single Experiments 1-3
  Percent of positive nuclei (3 or more than 3 g-H2AX foci): 47.2973% and 43.3071% and 55.7522%
[3]; immunofluorescence and Western blot, versus parental
  DNA damage (γ-H2AX phosphorylation): selectively caused DNA damage
[4]; Average of Expt 1-3 (DMSO 4.28755)
  Percent of positive nuclei, Average: 10.2071%
[4]; single Experiments 1-3
  Percent of positive nuclei (3 or more than 3 g-H2AX foci): 11.5942% and 12.5984% and 6.429%
